Measurements from paper PMC6099728, “Investigation of Hydro-Lipophilic Properties of N-Alkoxyphenylhydroxynaphthalenecarboxamides” (Molecules : A Journal of Synthetic Chemistry and Natural …, 2018).

Test: Lipophilicity determination by RP-HPLC (capacity factor k / logk)
Type: physicochemical
Conditions: for logk: isocratic MeOH 72%/H2O 28%, C18 column, 40 °C; for πB (distributive parameter π calculated from logk) / πA (distributive parameter π calculated from logk) / πC (distributive parameter π calculated from logk): π = logkS − logkU; for πB (distributive parameter π calculated from logk): unsubstituted 1b as reference; for πA (distributive parameter π calculated from logk): unsubstituted 1a as reference; for πC (distributive parameter π calculated from logk): unsubstituted 1c as reference
Text: A HPLC separation module Waters Alliance 2695 XE equipped with a Waters Dual Absorbance Detector 2486 (Waters Corp., Milford, MA, USA) was used. A chromatographic column Symmetry® C18 5 µm, 4.6 × 250 mm, Part No. W21751W016 (Waters Corp.) was used. The HPLC separation process was monitored by Empower® 3 Chromatography Manager Software (Waters Corp.). Isocratic elution by a mixture of MeOH p.a. (72%) and H2O-HPLC Mili-Q grade (28%) as a mobile phase was used. The total flow of the column was 1.0 mL/min, the injection was 20 μL, the column temperature was 40 °C, and the sample temperature was 10 °C. A detection wavelength of 210 nm was chosen. The KI methanolic solution was used for the determination of dead time (tD). Retention times (tR) were measured in minutes. Capacity factors k were calculated using the Empower® 3 Chromatography Manager Software according to the formula k = (tR − tD)/tD, where tR is the retention time of the solute, while tD is the dead time obtained using an unretained analyte. Each experiment was repeated three times. Logk, which was calculated from the capacity factor k, is used as the lipophilicity index converted to the logP scale.

| Compound | logk (series B) | πB (distributive parameter π calculated from logk) (series B) | logk (series A) | πA (distributive parameter π calculated from logk) (series A) | logk (series C) | πC (distributive parameter π calculated from logk) (series C) |
| --- | --- | --- | --- | --- | --- | --- |
| COc1cccc(NC(=O)c2ccc3ccccc3c2O)c1 [3b] | 0.6828 | 0.04 | – | – | – | – |
| O=C(Nc1ccccc1)c1ccc2ccccc2c1O [1b] | 0.6755 | 0 | – | – | – | – |
| COc1ccccc1NC(=O)c1cc2ccccc2cc1O [2a] | – | – | 0.3982 | 0.09 | – | – |
| CC(C)Oc1ccc(NC(=O)c2cc3ccccc3cc2O)cc1 [16a] | – | – | 0.6017 | 0.59 | – | – |
| CCC(C)Oc1ccc(NC(=O)c2cc3ccccc3cc2O)cc1 (stereo not drawn) [19a] | – | – | 0.7977 | 0.09 | – | – |
| CCOc1ccccc1NC(=O)c1c(O)ccc2ccccc12 [5c] | – | – | – | – | 0.4759 | 0.39 |
| CCCOc1ccc(NC(=O)c2cc3ccccc3cc2O)cc1 [10a] | – | – | 0.6963 | 0.75 | – | – |
| CCCOc1ccc(NC(=O)c2ccc3ccccc3c2O)cc1 [10b] | 0.9588 | 0.75 | – | – | – | – |
| CCC(C)Oc1cccc(NC(=O)c2cc3ccccc3cc2O)c1 (stereo not drawn) [18a] | – | – | 0.8670 | 0.95 | – | – |
| COc1ccccc1NC(=O)c1c(O)ccc2ccccc12 [2c] | – | – | – | – | 0.2518 | 0.05 |
| CCC(C)Oc1cccc(NC(=O)c2ccc3ccccc3c2O)c1 (stereo not drawn) [18b] | 1.1291 | 0.95 | – | – | – | – |
| CC(C)Oc1ccccc1NC(=O)c1ccc2ccccc2c1O [14b] | 1.2556 | 0.66 | – | – | – | – |
| CCOc1cccc(NC(=O)c2ccc3ccccc3c2O)c1 [6b] | 0.8353 | 0.36 | – | – | – | – |
| CCC(C)Oc1ccc(NC(=O)c2c(O)ccc3ccccc23)cc1 (stereo not drawn) [19c] | – | – | – | – | 0.3621 | 0.91 |
| CC(C)Oc1ccccc1NC(=O)c1cc2ccccc2cc1O [14a] | – | – | 0.6360 | 0.66 | – | – |
| COc1ccccc1NC(=O)c1ccc2ccccc2c1O [2b] | 0.8593 | 0.09 | – | – | – | – |
| COc1ccc(NC(=O)c2ccc3ccccc3c2O)cc1 [4b] | 0.6239 | −0.15 | – | – | – | – |
| CCCOc1cccc(NC(=O)c2c(O)ccc3ccccc23)c1 [9c] | – | – | – | – | 0.3209 | 0.65 |
| CCOc1ccc(NC(=O)c2ccc3ccccc3c2O)cc1 [7b] | 0.7700 | 0.15 | – | – | – | – |

| Compound | logk (series B) | πB (distributive parameter π calculated from logk) (series B) | logk (series A) | πA (distributive parameter π calculated from logk) (series A) | logk (series C) | πC (distributive parameter π calculated from logk) (series C) |
| --- | --- | --- | --- | --- | --- | --- |
| CCOc1cccc(NC(=O)c2cc3ccccc3cc2O)c1 [6a] | – | – | 0.5682 | 0.36 | – | – |
| O=C(Nc1ccccc1)c1c(O)ccc2ccccc12 [1c] | – | – | – | – | −0.0581 | 0 |
| CCCCOc1ccccc1NC(=O)c1ccc2ccccc2c1O [11b] | 1.5122 | 1.08 | – | – | – | – |
| CCOc1ccccc1NC(=O)c1ccc2ccccc2c1O [5b] | 1.0940 | 0.40 | – | – | – | – |
| CCCOc1cccc(NC(=O)c2cc3ccccc3cc2O)c1 [9a] | – | – | 0.7672 | 0.69 | – | – |
| CCOc1ccccc1NC(=O)c1cc2ccccc2cc1O [5a] | – | – | 0.5570 | 0.40 | – | – |
| COc1ccc(NC(=O)c2c(O)ccc3ccccc23)cc1 [4c] | – | – | – | – | −0.1149 | −0.19 |
| CCCOc1ccc(NC(=O)c2c(O)ccc3ccccc23)cc1 [10c] | – | – | – | – | 0.2622 | 0.72 |
| CCCCOc1ccccc1NC(=O)c1c(O)ccc2ccccc12 [11c] | – | – | – | – | 0.8578 | 1.04 |
| CC(C)Oc1ccc(NC(=O)c2c(O)ccc3ccccc23)cc1 [16c] | – | – | – | – | 0.1619 | 0.55 |
| CCC(C)Oc1cccc(NC(=O)c2c(O)ccc3ccccc23)c1 (stereo not drawn) [18c] | – | – | – | – | 0.4129 | 0.91 |
| CC(C)Oc1cccc(NC(=O)c2ccc3ccccc3c2O)c1 [15b] | 0.9355 | 0.61 | – | – | – | – |
| CCCOc1cccc(NC(=O)c2ccc3ccccc3c2O)c1 [9b] | 1.0215 | 0.69 | – | – | – | – |
| CC(C)Oc1cccc(NC(=O)c2c(O)ccc3ccccc23)c1 [15c] | – | – | – | – | 0.2214 | 0.57 |
| CCC(C)Oc1ccccc1NC(=O)c1c(O)ccc2ccccc12 (stereo not drawn) [17c] | – | – | – | – | 0.7927 | 0.98 |
| CCOc1ccc(NC(=O)c2c(O)ccc3ccccc23)cc1 [7c] | – | – | – | – | 0.0542 | 0.27 |
| CC(C)Oc1cccc(NC(=O)c2cc3ccccc3cc2O)c1 [15a] | – | – | 0.6723 | 0.61 | – | – |
| CCCCOc1ccc(NC(=O)c2c(O)ccc3ccccc23)cc1 [13c] | – | – | – | – | 0.4604 | 1.05 |
| CCCOc1ccccc1NC(=O)c1ccc2ccccc2c1O [8b] | 1.3103 | 0.74 | – | – | – | – |

| Compound | logk (series B) | πB (distributive parameter π calculated from logk) (series B) | logk (series A) | πA (distributive parameter π calculated from logk) (series A) | logk (series C) | πC (distributive parameter π calculated from logk) (series C) |
| --- | --- | --- | --- | --- | --- | --- |
| CC(C)Oc1ccc(NC(=O)c2ccc3ccccc3c2O)cc1 [16b] | 0.8648 | 0.59 | – | – | – | – |
| COc1ccc(NC(=O)c2cc3ccccc3cc2O)cc1 [4a] | – | – | 0.3374 | −0.15 | – | – |
| CCC(C)Oc1ccccc1NC(=O)c1cc2ccccc2cc1O (stereo not drawn) [17a] | – | – | 0.7956 | 1.00 | – | – |
| O=C(Nc1ccccc1)c1cc2ccccc2cc1O [1a] | – | – | 0.3927 | 0 | – | – |
| COc1cccc(NC(=O)c2cc3ccccc3cc2O)c1 [3a] | – | – | 0.4055 | 0.04 | – | – |
| COc1cccc(NC(=O)c2c(O)ccc3ccccc23)c1 [3c] | – | – | – | – | 0.1106 | 0.02 |
| CCCCOc1ccccc1NC(=O)c1cc2ccccc2cc1O [11a] | – | – | 0.9136 | 1.08 | – | – |
| CCCOc1ccccc1NC(=O)c1c(O)ccc2ccccc12 [8c] | – | – | – | – | 0.6639 | 0.73 |
| CCCCOc1cccc(NC(=O)c2c(O)ccc3ccccc23)c1 [12c] | – | – | – | – | 0.5161 | 1.00 |
| CCOc1cccc(NC(=O)c2c(O)ccc3ccccc23)c1 [6c] | – | – | – | – | 0.1175 | 0.34 |
| CCC(C)Oc1ccccc1NC(=O)c1ccc2ccccc2c1O (stereo not drawn) [17b] | 1.4424 | 1.00 | – | – | – | – |
| CCCCOc1cccc(NC(=O)c2cc3ccccc3cc2O)c1 [12a] | – | – | 0.9711 | 1.02 | – | – |
| CCOc1ccc(NC(=O)c2cc3ccccc3cc2O)cc1 [7a] | – | – | 0.4916 | 0.15 | – | – |
| CC(C)Oc1ccccc1NC(=O)c1c(O)ccc2ccccc12 [14c] | – | – | – | – | 0.6145 | 0.66 |
| CCCCOc1ccc(NC(=O)c2ccc3ccccc3c2O)cc1 [13b] | 1.1537 | 1.08 | – | – | – | – |
| CCCCOc1cccc(NC(=O)c2ccc3ccccc3c2O)c1 [12b] | 1.2088 | 1.02 | – | – | – | – |
| CCC(C)Oc1ccc(NC(=O)c2ccc3ccccc3c2O)cc1 (stereo not drawn) [19b] | 1.0518 | 0.94 | – | – | – | – |
| CCCOc1ccccc1NC(=O)c1cc2ccccc2cc1O [8a] | – | – | 0.7221 | 0.74 | – | – |
| CCCCOc1ccc(NC(=O)c2cc3ccccc3cc2O)cc1 [13a] | – | – | 0.8961 | 1.08 | – | – |
